Experimental findings from patent publication US10011627B2, “C-aryl glucoside derivative, preparation methods thereof, and medical applications thereof” (YOUNGENE THERAPEUTICS CO., LTD, priority 2013, dated 2018) are described below.

The structures appear in SMILES notation.

One assay addresses SGLT2 (Homo sapiens (Human), UniProt P31639). The assay is described as follows: Activity assay of SGLT2: [14C] methyl α-D-glucopyranoside uptake in SGLT2 transiently transferred HEK293 cells. In kind it is cell-based. To be noted: 2 hours at 37° C. As to the method:
(§1) Activity Assay of SGLT1 and SGLT2:
(§2) The following method was used to determine the inhibitory activity of the compounds of the present invention on SGLT1 and SGLT2. The experimental method is summarized as follows:
(§3) SGLT1 and SGLT2 transiently transferred HEK293 cells (prepared according to the existing literature “Diabetes, 57, 1723-1729, 2008”, wherein cDNA of SGLT1 and SGLT2 was purchased from Origene company) were seeded in a 96-well plate. The density of the cells was 1-1.5×10^4. The cells were cultured at 37° C. and 5% CO2 for 48 hours, and then washed twice with 200 μL sodium-free buffer. 90 μL sodium-containing buffer of the test compound at different concentrations was added to the well. Each test compound was repeated in three wells for each concentration. The cells were cultured at 37° C. for 15 minutes, then 10 μL (in number 0.1 μCi [^14C]) Methyl α-D-glucopyranoside was added to each well of the 96-well plate. The cells were further cultured at 37° C. for 2 hours, then the supernatant was discarded. The cells were washed twice with pre-chilled sodium-free buffer and then dissolved in 100 μL NaOH (200 mM). 100 μL scintillation solution was added, and mixed well. Scintiloscope was used for the quantitative detection of ^14C.
(§4) IC50 values of the compounds of various examples were calculated from the […] at different concentrations.

In a further assay the target is SGLT1 (Homo sapiens (Human), UniProt P13866). The assay is described as follows: Activity assay of SGLT1: [14C] methyl α-D-glucopyranoside uptake in SGLT1 transiently transferred HEK293 cells. In kind it is cell-based. To be noted: for IC50: SGLT1 transiently transferred HEK293 cells, [14C] methyl α-D-glucopyranoside, 2 hours at 37° C.; for inhibition of SGLT1 (conclusion in words): conclusion from the IC50 table. As to the method: as §1, §2, §3, §4
Chain of SGLT1 (P13866 whole entry, species assumed): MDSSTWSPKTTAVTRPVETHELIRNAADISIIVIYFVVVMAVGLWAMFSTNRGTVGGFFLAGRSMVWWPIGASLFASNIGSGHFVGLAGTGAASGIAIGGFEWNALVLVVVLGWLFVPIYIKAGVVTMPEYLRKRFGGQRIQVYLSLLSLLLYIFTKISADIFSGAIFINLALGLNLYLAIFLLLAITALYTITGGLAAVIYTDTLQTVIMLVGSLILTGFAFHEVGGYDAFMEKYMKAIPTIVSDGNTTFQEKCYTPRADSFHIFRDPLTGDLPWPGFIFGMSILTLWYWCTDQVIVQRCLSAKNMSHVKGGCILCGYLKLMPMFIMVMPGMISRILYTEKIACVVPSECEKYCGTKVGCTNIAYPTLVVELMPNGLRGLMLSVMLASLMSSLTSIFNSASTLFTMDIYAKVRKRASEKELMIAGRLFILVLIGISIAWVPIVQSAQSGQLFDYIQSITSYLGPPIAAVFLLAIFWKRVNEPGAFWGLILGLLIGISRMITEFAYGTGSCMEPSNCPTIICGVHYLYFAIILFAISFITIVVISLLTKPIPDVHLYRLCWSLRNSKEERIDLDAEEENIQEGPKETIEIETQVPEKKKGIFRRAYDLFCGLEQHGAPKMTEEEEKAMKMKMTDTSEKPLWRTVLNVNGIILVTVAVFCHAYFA

Chain of SGLT2 (P31639 whole entry, species assumed): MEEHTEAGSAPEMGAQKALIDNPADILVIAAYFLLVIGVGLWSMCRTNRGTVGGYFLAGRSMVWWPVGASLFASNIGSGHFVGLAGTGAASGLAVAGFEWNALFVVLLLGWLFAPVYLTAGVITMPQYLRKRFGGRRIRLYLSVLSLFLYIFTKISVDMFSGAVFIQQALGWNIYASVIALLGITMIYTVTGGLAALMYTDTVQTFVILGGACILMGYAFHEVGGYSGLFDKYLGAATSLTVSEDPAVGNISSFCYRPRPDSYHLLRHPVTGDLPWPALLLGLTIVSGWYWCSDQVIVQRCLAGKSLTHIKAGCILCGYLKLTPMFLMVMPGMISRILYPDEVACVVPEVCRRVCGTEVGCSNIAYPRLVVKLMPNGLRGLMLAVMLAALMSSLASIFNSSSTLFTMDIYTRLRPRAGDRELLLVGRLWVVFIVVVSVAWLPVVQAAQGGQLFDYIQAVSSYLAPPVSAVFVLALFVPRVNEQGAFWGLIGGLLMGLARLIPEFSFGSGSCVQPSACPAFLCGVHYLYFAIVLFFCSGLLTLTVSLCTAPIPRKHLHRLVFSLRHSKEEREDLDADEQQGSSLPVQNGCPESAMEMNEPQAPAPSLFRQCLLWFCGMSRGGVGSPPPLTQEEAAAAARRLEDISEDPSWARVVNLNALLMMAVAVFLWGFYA

Turning to `OC[C@@]12CO[C@@](c3ccc(Cl)c(Cc4ccc5c(c4)OCCO5)c3)(O1)[C@H](O)[C@@H](O)[C@@H]2O` [Example 1, (1S,2S,3S,4R,5S)-5-(4-chloro-3-((2,3-dihydrobenzo[b][1,4]dioxin-6-yl)methyl)phenyl)-1-(hydroxymethyl)-6,8-dioxabicyclo[3.2.1]octane-2,3,4-triol], the IC50 is 0.58 nM against SGLT2 and 953 nM against SGLT1.

On to `OC[C@@]12CO[C@@](c3ccc(C4CC4)c(Cc4ccc5c(c4)OCCO5)c3)(O1)[C@H](O)[C@@H](O)[C@@H]2O` [Example 2, (1S,2S,3S,4R,5S)-5-(4-cyclopropyl-3-((2,3-dihydrobenzo[b][1,4]dioxin-6-yl)methyl)phenyl)-1-(hydroxymethyl)-6,8-dioxabicyclo[3.2.1]octane-2,3,4-triol], for which the IC50 stood at 3.67 nM at SGLT2 and 15.7 nM against SGLT1. For the same compound, the “inhibition of SGLT1 (conclusion in words)” value (“inhibition of SGLT1” below) at SGLT1 was “inhibited SGLT1”.

Take `OC[C@H]1S[C@@H](c2cc3c(c(Cc4ccc5c(c4)OCCO5)c2)OCC3)[C@H](O)[C@@H](O)[C@@H]1O` [Example 3, (2S,3R,4R,5S,6R)-2-(7-((2,3-dihydrobenzo[b][1,4]dioxin-6-yl)methyl)-2,3-dihydrobenzofuran-5-yl)-6-(hydroxymethyl)tetrahydro-2H-thiopyran-3,4,5-triol]: the half-inhibitory concentration (IC50) at SGLT2 is 19.8 nM; against SGLT1, 2560 nM.

For `Cc1ccc([C@@H]2S[C@H](CO)[C@@H](O)[C@H](O)[C@H]2O)cc1Cc1ccc2c(c1)OCCO2` [Example 4, (2S,3R,4R,5S,6R)-2-(3-((2,3-dihydrobenzo[b][1,4]dioxin-6-yl)methyl)-4-methylphenyl)-6-(hydroxymethyl)tetrahydro-2H-thiopyran-3,4,5-triol], 132 nM corresponded to half-maximal inhibition against SGLT2 (IC50). In addition, on SGLT1, the concentration for half-maximal inhibition (IC50) was found to be 89 nM and the “inhibition of SGLT1” value was “inhibited SGLT1”.

As for `CCCc1ccc([C@]23OC[C@](CO)(O2)[C@@H](O)[C@H](O)[C@H]3O)cc1Cc1ccc2c(c1)OCCO2` [Example 7, (1S,2S,3S,4R,5S)-5-(3-((2,3-dihydrobenzo[b][1,4]dioxin-6-yl)methyl)-4-propylphenyl)-1-(hydroxymethyl)-6,8-dioxabicyclo[3.2.1]octane-2,3,4-triol], on SGLT2, the IC50 was determined as 1.82 nM. In addition, at SGLT1, the IC50 was 17.2 nM and the “inhibition of SGLT1” value is on record as “inhibited SGLT1”.

Consider `Cc1ccc([C@]23OC[C@](CO)(O2)[C@@H](O)[C@H](O)[C@H]3O)cc1Cc1ccc2c(c1)OCCO2` [Example 8, (1S,2S,3S,4R,5S)-5-(3-((2,3-dihydrobenzo[b][1,4]dioxin-6-yl)methyl)-4-methylphenyl)-1-(hydroxymethyl)-6,8-dioxabicyclo[3.2.1]octane-2,3,4-triol], for which the concentration for half-maximal inhibition (IC50) at SGLT2 worked out at 583 nM; against SGLT1, 1.21 nM.

At SGLT2, `CCc1ccc([C@]23OC[C@](CO)(O2)[C@@H](O)[C@H](O)[C@H]3O)cc1Cc1ccc2c(c1)OCCO2` [Example 9, (1S,2S,3S,4R,5S)-5-(3-((2,3-dihydrobenzo[b][1,4]dioxin-6-yl)methyl)-4-ethylphenyl)-1-(hydroxymethyl)-6,8-dioxabicyclo[3.2.1]octane-2,3,4-triol] returned an IC50 of 1.49 nM. Further, at SGLT1, half-maximal inhibition (IC50) required 16.6 nM and the “inhibition of SGLT1” value is on record as “inhibited SGLT1”.

As a reminder, the IC50 is the concentration needed to halve the response being measured. A high value points to a need for much substance.
